Literature values in patent US7491718B2, “Sulfonamides having antiangiogenic and anticancer activity” (Abbott Laboratories, priority 2002, dated 2009).

Target: type 2-methionine aminopeptidase (MetAP-2) (Homo sapiens, UniProt P50579)
Conditions: reported in Proc. Natl. Acad. Sci. USA 94: 6099-6103 (1997) and Chemistry and Biology, 4(6): 461-471 (1997)

Chain of type 2-methionine aminopeptidase (MetAP-2) (P50579 whole entry, species assumed): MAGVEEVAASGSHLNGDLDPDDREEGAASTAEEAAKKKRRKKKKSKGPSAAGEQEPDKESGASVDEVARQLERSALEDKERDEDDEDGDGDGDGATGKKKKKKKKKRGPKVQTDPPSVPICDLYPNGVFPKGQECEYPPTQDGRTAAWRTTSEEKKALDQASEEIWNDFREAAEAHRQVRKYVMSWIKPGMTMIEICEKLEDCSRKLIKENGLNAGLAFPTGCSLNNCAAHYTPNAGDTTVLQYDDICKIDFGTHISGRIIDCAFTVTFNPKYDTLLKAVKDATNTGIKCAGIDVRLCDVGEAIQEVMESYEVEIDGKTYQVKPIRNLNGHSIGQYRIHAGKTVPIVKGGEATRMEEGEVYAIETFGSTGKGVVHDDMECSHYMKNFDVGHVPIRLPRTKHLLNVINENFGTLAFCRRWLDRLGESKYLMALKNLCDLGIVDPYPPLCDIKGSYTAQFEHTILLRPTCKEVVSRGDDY

For CO[C@@H]1[C@H](OC(=O)NC(=O)CCl)CC[C@]2(CO2)[C@H]1[C@@]1(C)O[C@@H]1CC=C(C)C [AGM-1470], the “binding to MetAP-2” value is listed as “bind”.
